Measurements as given in US20240024488A1, “COMPOUNDS AND USES THEREOF” (Foghorn Therapeutics Inc., priority 2020, published 2024).

Key:
[1] = target: T1, HiBit-BRG1 fusion protein (Homo sapiens, UniProt P51532); experiment: HiBiT-BRG1 cell-based degradation assay (Nano-Glo HiBiT Lytic Detection, 24 h); conditions: HeLa cell line expressing HiBit-BRG1 and LgBit; for Dmax: read-out: BRG1 HiBit Degradation Maximum (%); for DC50: read-out: BRMG1 HiBit Degradation IC50
T1 construct: expressed in transfected cells
Procedure, shortened: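 HeLa cells stably expressing HiBiT-BRG1 plus LgBit, 5000/well, treated 24 h, then lysed with Nano-Glo HiBiT lytic reagent and luminescence read. % degradation normalised between DMSO (high control) and 2 μM reference BRM/BRG1 degrader (low control).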

HiBit-BRM fusion protein = target: T2, HiBit-BRM fusion protein (Homo sapiens, UniProt P51531); experiment: HiBiT-BRM cell-based degradation assay (Nano-Glo HiBiT Lytic Detection, 24 h); conditions: HeLa cell line expressing HiBiT-BRM; for DC50: read-out: BRM HiBit Degradation IC50
T2 construct: expressed in transfected cells
Procedure, shortened: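 Stable HiBiT-BRM HeLa line; 24 h compound exposure, top final 30 μM, 3-fold, 10 pts in duplicate. Lytic HiBiT/LgBiT luminescence readout. % degradation vs DMSO (0%) and 2 μM known BRM/BRG1 degrader (100%).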

T1 sequence (P51532 whole entry, the tested form may be a part): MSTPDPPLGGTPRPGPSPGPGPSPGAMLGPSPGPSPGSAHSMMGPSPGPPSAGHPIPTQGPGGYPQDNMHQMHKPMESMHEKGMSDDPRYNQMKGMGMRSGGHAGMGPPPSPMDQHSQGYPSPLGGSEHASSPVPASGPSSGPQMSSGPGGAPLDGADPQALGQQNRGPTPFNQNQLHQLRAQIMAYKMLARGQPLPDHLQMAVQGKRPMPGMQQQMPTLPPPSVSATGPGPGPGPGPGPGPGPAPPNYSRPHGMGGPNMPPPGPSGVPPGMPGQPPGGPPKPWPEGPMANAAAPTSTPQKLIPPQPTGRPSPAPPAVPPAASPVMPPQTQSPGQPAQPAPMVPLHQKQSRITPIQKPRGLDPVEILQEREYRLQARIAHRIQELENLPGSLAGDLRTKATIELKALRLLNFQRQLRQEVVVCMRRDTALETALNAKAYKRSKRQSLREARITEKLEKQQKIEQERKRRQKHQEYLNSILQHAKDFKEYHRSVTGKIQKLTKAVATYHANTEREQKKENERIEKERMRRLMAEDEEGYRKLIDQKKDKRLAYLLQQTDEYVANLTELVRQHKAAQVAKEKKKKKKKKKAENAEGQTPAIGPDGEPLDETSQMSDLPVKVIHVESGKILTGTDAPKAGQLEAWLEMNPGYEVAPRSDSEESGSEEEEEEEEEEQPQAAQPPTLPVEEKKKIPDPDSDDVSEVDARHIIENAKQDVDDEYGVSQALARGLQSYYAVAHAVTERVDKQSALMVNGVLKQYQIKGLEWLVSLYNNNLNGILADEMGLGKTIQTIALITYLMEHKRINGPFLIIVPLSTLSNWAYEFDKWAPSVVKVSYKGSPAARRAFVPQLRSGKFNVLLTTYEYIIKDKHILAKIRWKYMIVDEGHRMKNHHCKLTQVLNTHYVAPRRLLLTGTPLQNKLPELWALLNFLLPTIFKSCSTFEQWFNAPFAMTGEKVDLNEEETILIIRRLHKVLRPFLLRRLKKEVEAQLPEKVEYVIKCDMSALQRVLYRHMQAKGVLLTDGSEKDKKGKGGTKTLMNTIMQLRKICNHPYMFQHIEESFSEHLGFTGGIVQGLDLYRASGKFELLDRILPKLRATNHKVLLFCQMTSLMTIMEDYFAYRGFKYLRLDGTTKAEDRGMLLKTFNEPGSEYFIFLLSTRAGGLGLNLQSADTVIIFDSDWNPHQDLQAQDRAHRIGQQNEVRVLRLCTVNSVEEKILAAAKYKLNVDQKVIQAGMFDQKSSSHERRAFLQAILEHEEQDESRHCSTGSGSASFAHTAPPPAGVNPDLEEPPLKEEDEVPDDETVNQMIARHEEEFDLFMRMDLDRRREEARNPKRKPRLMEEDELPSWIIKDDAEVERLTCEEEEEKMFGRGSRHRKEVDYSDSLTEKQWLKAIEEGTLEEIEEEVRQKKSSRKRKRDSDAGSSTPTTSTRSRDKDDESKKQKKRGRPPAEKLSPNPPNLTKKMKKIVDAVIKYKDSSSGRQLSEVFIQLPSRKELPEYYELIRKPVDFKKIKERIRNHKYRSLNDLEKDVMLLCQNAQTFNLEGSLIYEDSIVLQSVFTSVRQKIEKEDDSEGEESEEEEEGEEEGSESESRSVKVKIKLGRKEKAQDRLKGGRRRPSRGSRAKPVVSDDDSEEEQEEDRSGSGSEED
T2 sequence (P51531 whole entry, the tested form may be a part): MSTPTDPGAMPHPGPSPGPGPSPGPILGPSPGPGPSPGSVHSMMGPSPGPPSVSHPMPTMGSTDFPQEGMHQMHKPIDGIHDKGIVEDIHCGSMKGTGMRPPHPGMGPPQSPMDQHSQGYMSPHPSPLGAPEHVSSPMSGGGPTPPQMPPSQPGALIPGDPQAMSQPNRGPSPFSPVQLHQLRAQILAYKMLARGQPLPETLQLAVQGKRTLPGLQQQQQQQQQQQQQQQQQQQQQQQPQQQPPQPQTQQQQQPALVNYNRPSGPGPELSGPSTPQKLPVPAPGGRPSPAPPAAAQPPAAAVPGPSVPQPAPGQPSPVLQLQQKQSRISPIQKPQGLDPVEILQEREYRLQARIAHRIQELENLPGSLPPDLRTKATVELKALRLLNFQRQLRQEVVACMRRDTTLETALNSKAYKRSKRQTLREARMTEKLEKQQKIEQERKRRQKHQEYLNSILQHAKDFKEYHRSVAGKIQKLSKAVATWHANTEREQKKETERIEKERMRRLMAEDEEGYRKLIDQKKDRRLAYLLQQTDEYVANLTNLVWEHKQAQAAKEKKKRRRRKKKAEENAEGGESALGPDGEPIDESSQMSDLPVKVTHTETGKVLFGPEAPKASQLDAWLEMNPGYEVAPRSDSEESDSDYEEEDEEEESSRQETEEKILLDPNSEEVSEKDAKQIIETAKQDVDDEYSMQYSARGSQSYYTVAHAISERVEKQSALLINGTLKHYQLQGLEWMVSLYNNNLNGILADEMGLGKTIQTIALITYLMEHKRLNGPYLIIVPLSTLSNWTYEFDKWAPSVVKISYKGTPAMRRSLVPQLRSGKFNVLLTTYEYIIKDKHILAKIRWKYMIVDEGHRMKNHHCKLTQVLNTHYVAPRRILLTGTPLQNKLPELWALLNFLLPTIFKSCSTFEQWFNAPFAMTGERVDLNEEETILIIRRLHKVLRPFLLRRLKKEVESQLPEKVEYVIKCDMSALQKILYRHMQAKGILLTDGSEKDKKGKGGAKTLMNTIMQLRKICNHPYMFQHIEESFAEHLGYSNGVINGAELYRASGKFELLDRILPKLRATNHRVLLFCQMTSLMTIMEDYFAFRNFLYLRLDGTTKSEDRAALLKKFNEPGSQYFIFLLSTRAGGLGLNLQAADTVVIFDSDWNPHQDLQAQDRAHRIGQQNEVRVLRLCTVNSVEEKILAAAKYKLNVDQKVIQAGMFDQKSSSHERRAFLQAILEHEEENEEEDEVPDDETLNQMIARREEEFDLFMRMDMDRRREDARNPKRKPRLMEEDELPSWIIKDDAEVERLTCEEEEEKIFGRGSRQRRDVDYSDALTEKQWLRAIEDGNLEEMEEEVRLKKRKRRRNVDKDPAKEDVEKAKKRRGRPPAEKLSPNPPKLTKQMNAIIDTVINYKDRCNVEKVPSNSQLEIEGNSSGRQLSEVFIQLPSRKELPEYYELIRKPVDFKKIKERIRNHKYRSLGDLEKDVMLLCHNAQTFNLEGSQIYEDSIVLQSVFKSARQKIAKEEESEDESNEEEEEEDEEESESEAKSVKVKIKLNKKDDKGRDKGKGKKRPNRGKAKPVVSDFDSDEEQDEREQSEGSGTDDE

| Compound | Dmax [1] [%] | DC50 (HiBit-BRM fusion protein) [nM] | DC50 [1] [nM] | BRM HiBit Degradation Maximum (%) (HiBit-BRM fusion protein) |
| --- | --- | --- | --- | --- |
| Cc1ncsc1-c1ccc([C@H](C)NC(=O)[C@@H]2C[C@@H](O)CN2C(=O)[C@@H](c2cc(OCCN3CC(c4[nH]c5nnc(-c6ccccc6O)cc5c4C4CC4)C3)no2)C(C)C)cc1 (racemic) [Compound 164, (2S,4R)-1-((R)-2-(3-(2-(3-(5-cyclopropyl-3-(2-hydroxyphenyl)-7H-pyrrolo[2,3-c]pyridazin-6-yl)azetidin-1-yl)ethoxy)isoxazol-5-yl)-3-methylbutanoyl)-4-hydroxy-N-((S)-1-(4-(4-methylthiazol-5-yl)phenyl)ethyl)pyrrolidine-2-carboxamide] | > 75 | > 10 | > 100 | A (“A” indicates maximum degradation ≥ 75%) |
| Cc1ncsc1-c1ccc([C@H](C)NC(=O)[C@@H]2C[C@@H](O)CN2C(=O)[C@H](c2cc(N3CC(CN4CC(c5cc6cc(-c7ccccc7O)nnc6[nH]5)C4)C3)no2)C(C)C)cc1 (single isomer, unassigned) [Compound 162] | > 50 | – | > 1000 | C (“C” indicates maximum degradation < 50%) |
| Cc1ncsc1-c1ccc([C@H](C)NC(=O)[C@@H]2C[C@@H](O)CN2C(=O)[C@@H](c2cc(OCCNC(=O)c3cc4cc(-c5ccccc5O)nnc4[nH]3)no2)C(C)C)cc1 (racemic) [Compound 239, N-(2-((5-((R)-1-((2S,4R)-4-hydroxy-2-(((S)-1-(4-(4-methylthiazol-5-yl)phenyl)ethyl)carbamoyl)pyrrolidin-1-yl)-3-methyl-1-oxobutan-2-yl)isoxazol-3-yl)oxy)ethyl)-3-(2-hydroxyphenyl)-7H-pyrrolo[2,3-c]pyridazine-6-carboxamide] | < 50 | > 100 | – | A (“A” indicates maximum degradation ≥ 75%) |
| Cc1ncsc1-c1ccc([C@H](C)NC(=O)[C@@H]2C[C@@H](O)CN2C(=O)[C@@H](c2cc(OCCN3CCC(C)(c4cc5cc(-c6ccccc6O)nnc5[nH]4)CC3)no2)C(C)C)cc1 (racemic) [Compound 276, (2S,4R)-4-hydroxy-1-((R)-2-(3-(2-(4-(3-(2-hydroxyphenyl)-7H-pyrrolo[2,3-c]pyridazin-6-yl)-4-methylpiperidin-1-yl)ethoxy)isoxazol-5-yl)-3-methylbutanoyl)-N-((S)-1-(4-(4-methylthiazol-5-yl)phenyl)ethyl)pyrrolidine-2-carboxamide] | > 50 | > 10 | > 1000 | A (“A” indicates maximum degradation ≥ 75%) |
| Cc1ncsc1-c1ccc([C@H](C)NC(=O)[C@@H]2C[C@@H](O)CN2C(=O)[C@@H](c2cc(OCCN3CC(c4[nH]c5nnc(-c6cc(F)ccc6O)cc5c4C)C3)no2)C(C)C)cc1 (racemic) [Compound 130, (2S,4R)-1-((R)-2-(3-(2-(3-(3-(5-fluoro-2-hydroxyphenyl)-5-methyl-7H-pyrrolo[2,3-c]pyridazin-6-yl)azetidin-1-yl)ethoxy)isoxazol-5-yl)-3-methylbutanoyl)-4-hydroxy-N-((S)-1-(4-(4-methylthiazol-5-yl)phenyl)ethyl)pyrrolidine-2-carboxamide] | > 75 | < 10 | > 100 | A (“A” indicates maximum degradation ≥ 75%) |

The next lines start with results.

| Dmax [1] [%] | DC50 (HiBit-BRM fusion protein) [nM] | DC50 [1] [nM] | Compound | BRM HiBit Degradation Maximum (%) (HiBit-BRM fusion protein) |
| --- | --- | --- | --- | --- |
| < 50 | – | – | Cc1ncsc1-c1ccc([C@H](C)NC(=O)[C@@H]2C[C@@H](O)CN2C(=O)[C@@H](c2cc(OCCN3CC(C4(C)CNc5nnc(-c6ccccc6O)cc54)C3)no2)C(C)C)cc1 (mixture of isomers) [Compound 134] | C (“C” indicates maximum degradation < 50%) |
| < 50 | > 1000 | – | Cc1ncsc1-c1ccc([C@H](C)NC(=O)[C@@H]2C[C@@H](O)CN2C(=O)[C@@H](c2cc(N3C[C@@H]4C[C@H]3CN4C(=O)[C@H]3C[C@@]4(Cc5cc(-c6ccccc6O)nnc5N4)C3)no2)C(C)C)cc1 (racemic) [Compound 72, (2S,4R)-4-hydroxy-1-((R)-2-(3-((1S,4S)-5-((1S,3s)-3′-(2-hydroxyphenyl)-5′,7′-dihydrospiro[cyclobutane-1,6′-pyrrolo[2,3-c]pyridazine]-3-carbonyl)-2,5-diazabicyclo[2.2.1]heptan-2-yl)isoxazol-5-yl)-3-methylbutanoyl)-N-((S)-1-(4-(4-methylthiazol-5-yl)phenyl)ethyl)pyrrolidine-2-carboxamide] | B (“B” indicates maximum degradation ≥ 50%) |
| < 50 | – | – | Cc1ncsc1-c1ccc(CNC(=O)[C@@H]2C[C@@H](O)CN2C(=O)[C@@H](NC(=O)CCCC(=O)N2CC(c3c[nH]c4nnc(-c5ccccc5O)cc34)C2)C(C)(C)C)cc1 [Compound 40, (2S,4R)-4-hydroxy-1-((S)-2-(5-(3-(3-(2-hydroxyphenyl)-7H-pyrrolo[2,3-c]pyridazin-5-yl)azetidin-1-yl)-5-oxopentanamido)-3,3-dimethylbutanoyl)-N-(4-(4-methylthiazol-5-yl)benzyl)pyrrolidine-2-carboxamide] | C (“C” indicates maximum degradation < 50%) |
| > 75 | > 100 | > 1000 | Cc1ncsc1-c1ccc([C@H](C)NC(=O)[C@@H]2C[C@@H](O)CN2C(=O)[C@@H](c2cc(N3CCN(CC(=O)N4CC(c5cc6cc(-c7ccccc7O)nnc6[nH]5)C4)CC3)no2)C(C)C)cc1 (racemic) [Compound 263, (2S,4R)-4-hydroxy-1-((R)-2-(3-(4-(2-(3-(3-(2-hydroxyphenyl)-7H-pyrrolo[2,3-c]pyridazin-6-yl)azetidin-1-yl)-2-oxoethyl)piperazin-1-yl)isoxazol-5-yl)-3-methylbutanoyl)-N-((S)-1-(4-(4-methylthiazol-5-yl)phenyl)ethyl)pyrrolidine-2-carboxamide] | A (“A” indicates maximum degradation ≥ 75%) |
| < 50 | > 10 | – | Cc1ncsc1-c1ccc([C@H](C)NC(=O)[C@@H]2C[C@@H](O)CN2C(=O)[C@@H](c2cc(OCCN3CC(c4[nH]c5nnc(-c6ccccc6O)cc5c4Cl)C3)no2)C(C)C)cc1 (racemic) [Compound 238, (2S,4R)-1-[(2R)-2-[3-(2-{3-[5-chloro-3-(2-hydroxyphenyl)-7H-pyrrolo[2,3-c]pyridazin-6-yl]azetidin-1-yl}ethoxy)-1,2-oxazol-5-yl]-3-methylbutanoyl]-4-hydroxy-N-[(1S)-1-[4-(4-methyl-1,3-thiazol-5-yl)phenyl]ethyl]pyrrolidine-2-carboxamide] | A (“A” indicates maximum degradation ≥ 75%) |
| < 50 | – | – | Cc1ncsc1-c1ccc([C@H](C)NC(=O)[C@@H]2C[C@@H](O)CN2C(=O)[C@@H](c2cc(OCCN3CCc4[nH]c5nnc(-c6ccccc6O)cc5c4C3)no2)C(C)C)cc1 (racemic) [Compound 303, (2S,4R)-4-hydroxy-1-((R)-2-(3-(2-(3-(2-hydroxyphenyl)-5,7,8,9-tetrahydro-6H-pyrido[3′,4′:4,5]pyrrolo[2,3-c]pyridazin-6-yl)ethoxy)isoxazol-5-yl)-3-methylbutanoyl)-N-((S)-1-(4-(4-methylthiazol-5-yl)phenyl)ethyl)pyrrolidine-2-carboxamide] | C (“C” indicates maximum degradation < 50%) |
